Data taken from patent US20220251044A1, “CRYSTAL FORM OF HYPOXIA-INDUCIBLE FACTOR-PROLYL HYDROXYLASE INHIBITOR” (CRYSTAL PHARMACEUTICAL (SUZHOU) CO., LTD., priority 2019, published 2022).
Entries after “also recorded” stand apart in the source; their conditions may differ.

Columns and labels:
Assay type in all cases: physicochemical
[1] = Crystalline form stability in the formulation process (XRPD); details: capsule formulation of Table 17, process of Table 18
Source text: Form CSI of the present disclosure and WO2014014835 Form A were made into capsules using the formulation in Table 17 and the preparation process in Table 18. The XRPD patterns were collected before and after the formulation process. […] [table] [table]

[2] = Kinetic solubility in SGF, FaSSIF, FeSSIF and water
Source text: The parameters for kinetic solubility tests of the present disclosure are as follows:
When solubility test is used to predict the in vivo performance of a drug, it is critical to simulate in vivo conditions as closely as possible. For oral medication, Simulated Gastric Fluid (SGF), Fasted-State Simulated Intestinal Fluid (FaSSIF), Fed-State Simulated Intestinal Fluid (FeSSIF) can be used to simulate the condition in vivo and predict the effects of feeding, thus solubility in such mediums is closer to that in vivo.
20 mg of Form CSI and 20 mg of WO2014014835 Form A were suspended into 4.0 mL of SGF, 4.0 mL of FaSSIF, 4.0 mL of FeSSIF and 4.0 mL of water to get saturated solutions. After equilibrated for 1 h, 4 h, 8 h and 24 h, the concentrations (μg/mL) of Compound I of the saturated solutions were measured by UPLC.

[3] = Physical stability on grinding (XRPD); details: ground manually for 5 min in a mortar
Experimental: Form CSI and WO2014014835 Form A was ground manually for 5 min in a mortar.

[4] = Intrinsic dissolution (IDR); details: for IDR: slope of data within 5-120 minutes
Experimental: The parameters for intrinsic dissolution tests in the present disclosure are as follows:
Approximately 100 mg of Form CSI or WO2014014835 Form A was added into the cavity of the die, and then compressed at 10 kN and held for 0.5 minute to obtain a tablet having a surface area of 0.5 cm^2. The die with the tablet still embedded was put into a dissolution apparatus to test the intrinsic dissolution. The slope (in μg/min) of the regression line was calculated according to the data within 5-120 minutes. IDR (in μg/min/cm^2) was further calculated according to the slope.

[5] = Compressibility (tablet hardness, tensile strength); details: 80 mg, compressed at 10 kN
Experimental: ENERPAC manual tablet press was used for compression. 80 mg of Form CSI and WO2014014835 Form A were weighed and added into the dies of a φ6 mm round tooling, compressed at 10 kN, then stored at room temperature for 24 h until complete elastic recovery. Hardness (H) was tested with an intelligent tablet hardness tester. Diameter (D) and thickness (L) were tested with a caliper. Tensile strength of the powder was calculated with the following formula: T=2H/πDL*9.8. Under a certain force, the greater the tensile strength, the better the compressibility.

[6] = Hygroscopicity by DVS
Experimental: Dynamic Vapor Sorption (DVS) was measured via an SMS (Surface Measurement Systems Ltd.) intrinsic DVS instrument. Its control software is DVS-Intrinsic control software. Typical parameters for DVS test are as follows: Temperature: 25° C. Gas and flow rate: N2, 200 mL/min dm/dt: 0.002%/min RH range: 0% RH to 95% RH DVS was applied to test the hygroscopicity of Form CSI and WO2014014835 Form A with about 10 mg of samples. The weight gains at each relative humidity were recorded in a cycle of 0-95%-0 RH. XRPD test was applied before and after DVS. Description and definition of hygroscopicity (general notice 9103 drug hygroscopicity test guidelines in 2015 edition of Chinese Pharmacopoeia, test at 25° C.±1° C., 80% RH. The definition of hygroscopicity in the 9th European Pharmacopoeia 5.11 is similar to the Chinese Pharmacopoeia.).

[7] = Stability of Form CSI on storage (XRPD form, chemical purity)
Experimental: The parameters for purity tests of the present disclosure are as follows: [table] Approximately 5 mg of solid samples of Form CSI were stored under different conditions of 25° C./60% RH, 40° C./75% RH and 60° C./75% RH. Chemical purity and crystalline form were checked by HPLC and XRPD, respectively.

[8] = Pressure stability on tableting (XRPD)
Source text: Certain amount of Form CSI was compressed into tablets under different pressures with suitable tableting die. Crystalline forms before and after tableting were checked by XRPD.

[9] = 25° C./60% RH, sealed, 3 months
[10] = 40° C./75% RH, sealed, 3 months

**Q.** For `Cc1nc(C(=O)NCC(=O)O)c(O)c2ccc(Oc3ccccc3)cc12` [Form CSI, [(4-hydroxy-1-methyl-7-phenoxy-isoquinoline-3-carbonyl)-amino]-acetic acid], which “Crystalline form before and after the formulation process (XRPD)” value [1] is on record?
**A.** The value was “remains stable”.

**Q.** And the “Kinetic solubility (concentration of Compound I in saturated solution)” value (“Kinetic solubility” for short) ([2]; FaSSIF, 1 hour)?
**A.** The value was 0.617 mg/mL.

**Q.** What about the “Kinetic solubility” value ([2]; FaSSIF, 4 hours) of the same compound?
**A.** The value was 0.9346 mg/mL.

**Q.** What about the “Kinetic solubility” value ([2]; FaSSIF, 8 hours) of the same compound?
**A.** The value was 1.0435 mg/mL.

**Q.** And the “Kinetic solubility” value ([2]; FaSSIF, 24 hours)?
**A.** Its value is 1.1096 mg/mL.

**Q.** And the “Kinetic solubility” value ([2]; FeSSIF, 1 hour)?
**A.** Its value is 0.1804 mg/mL.

**Q.** And the “Kinetic solubility” value ([2]; FeSSIF, 4 hours)?
**A.** Its value is 0.2703 mg/mL.

**Q.** And the “Kinetic solubility” value ([2]; FeSSIF, 8 hours)?
**A.** Its value is 0.2953 mg/mL.

**Q.** And the “Kinetic solubility” value ([2]; FeSSIF, 24 hours)?
**A.** Its value is 0.3144 mg/mL.

**Q.** And the “Kinetic solubility” value ([2]; SGF, 1 hour)?
**A.** The value was 0.0227 mg/mL.

**Q.** And the “Kinetic solubility” value ([2]; SGF, 4 hours)?
**A.** The value was 0.024 mg/mL.

**Q.** And the “Kinetic solubility” value ([2]; SGF, 8 hours)?
**A.** Its value is 0.0242 mg/mL.

**Q.** And the “Kinetic solubility” value ([2]; SGF, 24 hours)?
**A.** The value was 0.024 mg/mL.

**Q.** What about the “Kinetic solubility” value ([2]; water, 1 hour) of the same compound?
**A.** Its value is 0.0182 mg/mL.

**Q.** And the “Kinetic solubility” value ([2]; water, 4 hours)?
**A.** The value was 0.0219 mg/mL.

**Q.** What about the “Kinetic solubility” value ([2]; water, 8 hours) of the same compound?
**A.** The value was 0.0341 mg/mL.

**Q.** And the “Kinetic solubility” value ([2]; water, 24 hours)?
**A.** Its value is 0.0257 mg/mL.

**Q.** What about the “Crystalline form and crystallinity after grinding (XRPD)” value [3] of the same compound?
**A.** The value was “remain unchanged after grinding”.

**Q.** And the “Increase of dissolution rate compared with Form A” value ([4]; pH 4.5 PBS)?
**A.** The value was 41%.

**Q.** What about the Cumulative dissolution ([4]; pH4.5 PBS, 5 min, 37° C., 0.5 cm^2 tablet) of the same compound?
**A.** The Cumulative dissolution was 36.8 µg.

**Q.** And the Cumulative dissolution ([4]; pH4.5 PBS, 10 min)?
**A.** The Cumulative dissolution was 35.6 µg.

**Q.** What about the Cumulative dissolution ([4]; pH4.5 PBS, 15 min) of the same compound?
**A.** The Cumulative dissolution was 39.8 µg.

**Q.** And the Cumulative dissolution ([4]; pH4.5 PBS, 20 min)?
**A.** The Cumulative dissolution was 50.0 µg.

**Q.** And the Cumulative dissolution ([4]; pH4.5 PBS, 25 min)?
**A.** Its Cumulative dissolution is 50.4 µg.

**Q.** What about the Cumulative dissolution ([4]; pH4.5 PBS, 30 min) of the same compound?
**A.** Its Cumulative dissolution is 56.0 µg.

**Q.** And the Cumulative dissolution ([4]; pH4.5 PBS, 45 min)?
**A.** The Cumulative dissolution was 70.7 µg.

**Q.** And the Cumulative dissolution ([4]; pH4.5 PBS, 60 min)?
**A.** Its Cumulative dissolution is 83.0 µg.

**Q.** And the Cumulative dissolution ([4]; pH4.5 PBS, 90 min)?
**A.** The Cumulative dissolution was 114.0 µg.

**Q.** What about the Cumulative dissolution ([4]; pH4.5 PBS, 120 min) of the same compound?
**A.** The Cumulative dissolution was 142.3 µg.

**Q.** What about the IDR ([4]; pH4.5 PBS) of the same compound?
**A.** The IDR was 1.8928 μg/min/cm^2.

**Q.** And the Cumulative dissolution ([4]; pH6.8 PBS, 5 min, 37° C., 0.5 cm^2 tablet)?
**A.** The Cumulative dissolution was 440.4 µg.

**Q.** What about the Cumulative dissolution ([4]; pH6.8 PBS, 10 min) of the same compound?
**A.** Its Cumulative dissolution is 916.0 µg.

**Q.** And the Cumulative dissolution ([4]; pH6.8 PBS, 15 min)?
**A.** Its Cumulative dissolution is 1345.9 µg.

**Q.** What about the Cumulative dissolution ([4]; pH6.8 PBS, 20 min) of the same compound?
**A.** The Cumulative dissolution was 1758.2 µg.

**Q.** And the Cumulative dissolution ([4]; pH6.8 PBS, 25 min)?
**A.** Its Cumulative dissolution is 2152.9 µg.

**Q.** And the Cumulative dissolution ([4]; pH6.8 PBS, 30 min)?
**A.** Its Cumulative dissolution is 2521.4 µg.

**Q.** What about the Cumulative dissolution ([4]; pH6.8 PBS, 45 min) of the same compound?
**A.** Its Cumulative dissolution is 3392.2 µg.

**Q.** And the Cumulative dissolution ([4]; pH6.8 PBS, 60 min)?
**A.** Its Cumulative dissolution is 4309.7 µg.

**Q.** What about the Cumulative dissolution ([4]; pH6.8 PBS, 90 min) of the same compound?
**A.** The Cumulative dissolution was 5967.2 µg.

**Q.** What about the Cumulative dissolution ([4]; pH6.8 PBS, 120 min) of the same compound?
**A.** The Cumulative dissolution was 7448.5 µg.

**Q.** What about the IDR ([4]; pH6.8 PBS) of the same compound?
**A.** The IDR was 120.3256 μg/min/cm^2.

**Q.** What about the Tensile strength ([5]; T=2H/πDL*9.8) of the same compound?
**A.** The Tensile strength was 1.22 MPa.

**Q.** What about the Hardness ([5]; φ6 mm round tooling, after 24 h) of the same compound?
**A.** Its Hardness is 2.47 kgf.

**Q.** And the “Weight gain under 80% RH” value ([6]; DVS, 25° C.)?
**A.** The value was 0.12%.

**Q.** What about the Hygroscopicity class ([6]; weight gain under 80% RH) of the same compound?
**A.** Its Hygroscopicity class is “non-hygroscopic or almost non-hygroscopic; also recorded: non hygroscopic or almost non-hygroscopic”.

**Q.** What about the “Chemical purity during storage” value ([7]; 25° C./60% RH) of the same compound?
**A.** The value was “above 99.5%”.

**Q.** What about the “Time the drug substance kept stable (crystalline state unchanged)” value ([7]; 25° C./60% RH) of the same compound?
**A.** The value was “at least three months”.

**Q.** And the “Crystalline form (XRPD) after storage” value ([7]; 25° C./60% RH, open, 3 months)?
**A.** Its value is “Form CSI”.

**Q.** What about the Purity after storage ([7]; 25° C./60% RH, open, 3 months) of the same compound?
**A.** The Purity after storage was 99.68%.

**Q.** And the “Crystalline form (XRPD) after storage” value [7, 9]?
**A.** The value was “Form CSI”.

**Q.** And the Purity after storage [7, 9]?
**A.** The Purity after storage was 99.65%.

**Q.** And the “Time the drug substance kept stable (crystalline state unchanged)” value ([7]; 40° C./75% RH)?
**A.** The value was “at least three months”.

**Q.** And the “Chemical purity during storage” value ([7]; 40° C./75% RH and 60° C./75% RH)?
**A.** Its value is “above 99.5%”.

**Q.** What about the “Crystalline form (XRPD) after storage” value ([7]; 40° C./75% RH, open, 3 months) of the same compound?
**A.** The value was “Form CSI”.

**Q.** And the Purity after storage ([7]; 40° C./75% RH, open, 3 months)?
**A.** Its Purity after storage is 99.68%.

**Q.** What about the “Crystalline form (XRPD) after storage” value [7, 10] of the same compound?
**A.** Its value is “Form CSI”.

**Q.** And the Purity after storage [7, 10]?
**A.** Its Purity after storage is 99.66%.

**Q.** And the “Time the drug substance kept stable (crystalline state unchanged)” value ([7]; 60° C./75% RH)?
**A.** The value was “at least one month”.

**Q.** And the “Crystalline form (XRPD) after storage” value ([7]; 60° C./75% RH, open, 1 month)?
**A.** Its value is “Form CSI”.

**Q.** What about the Purity after storage ([7]; 60° C./75% RH, open, 1 month) of the same compound?
**A.** Its Purity after storage is 99.63%.

**Q.** And the “Crystalline form (XRPD) after storage” value ([7]; 60° C./75% RH, sealed, 1 month)?
**A.** Its value is “Form CSI”.

**Q.** And the Purity after storage ([7]; 60° C./75% RH, sealed, 1 month)?
**A.** The Purity after storage was 99.68%.

**Q.** What about the “Crystalline form (XRPD)” value ([7]; Initial) of the same compound?
**A.** The value was “Form CSI”.

**Q.** And the Purity ([7]; Initial)?
**A.** The Purity was 99.71%.

**Q.** And the “Crystalline form after tableting (XRPD)” value ([8]; pressure 10 KN)?
**A.** Its value is “Form CSI”.

**Q.** What about the “Crystalline form after tableting (XRPD)” value ([8]; pressure 15 KN) of the same compound?
**A.** The value was “Form CSI”.
